# According to patent US20260151504A1, “SYNTHETIC CELLS COMPRISING TNF-RELATED APOPTOSIS-INDUCING LIGAND (TRAIL) AND METHODS OF USING THE SAME” (Slingshot Biosciences, Inc., priority 2023, published 2026):
# Experiments:
# Jurkat tumor cells = assay: Annexin V / 7-AAD flow cytometry of Jurkat tumor cells treated with TRAIL delivery systems; type: cell-based; details: camptothecin 100 nM, percentage of cells
# Method: (§1) Briefly, 100K live Jeko-1 or Jurkat cells were plated in RPMI media containing 10% Fetal bovine serum and 1% PenStrep in 100 μL volume.
# (§2) Synthetic cytotoxic cells and equivalent total molecules of soluble TRAIL were plated 8 hours post seeding of tumor cells in 100 μL total volume. Amount of soluble TRAIL per well to match the amount of microsphere or bead-bound TRAIL was calculated as follows. Assuming 150K TRAIL molecules per microsphere/bead and 1e^6 microsphere/bead per well, 1.5e^11 soluble TRAIL molecules per well were used, which was calculated to be equivalent to 23 ng soluble TRAIL per well.
# (§3) Twenty-four and forty-eight hours post incubation, cells were harvested and stained with Annexin V and 7-AAD. Anti-CD19 and Anti-CD3 antibodies were used to separate Jeko-1 cells from beads and Jurkat cells from beads, respectively. While Jeko-1 cells are CD19-expressing B-cells that are TRAIL-sensitive, Jurkat cells are CD3-expressing T cells that have low-moderate sensitivity to TRAIL. Determination of stage of cell death and % apoptotic cells were determined from the gating strategy outlined in FIG. 8. Samples were plated in duplicates and all sample acquisition was performed on the Cytoflex Beckman Coulter Flow Cytometer 24 hours and 48 hours post treatment of tumor cells with treatment conditions. Data analysis was further processed on FlowJo™ v10 software.
# Jeko-1 tumor cells = assay: Annexin V / 7-AAD flow cytometry of Jeko-1 tumor cells treated with TRAIL delivery systems; type: cell-based; details: camptothecin 100 nM, percentage of cells
# Method: as §1, §2, §3
# [1] = Table 4A, Jeko-1, 24 Hrs., TRAIL equivalent to 1.5e^11 molecules per well
smiles,measurement,setting,value
"CC[C@@]1(O)C(=O)OCc2c1cc1n(c2=O)Cc2cc3ccccc3nc2-1 [Camptothecin, camptothecin]",Early Stage Apoptotic (7-AAD−/Annexin V+),"Jurkat tumor cells; Table 5A, 24 Hrs.",59.8
same,Late Stage Apoptotic (7-AAD+/Annexin V+),"Jurkat tumor cells; Table 5A, 24 Hrs.",26.9
same,Live Cells (7-AAD−/Annexin V−),"Jurkat tumor cells; Table 5A, 24 Hrs.",13.1
same,Necrotic (7-AAD+/Annexin V−),"Jurkat tumor cells; Table 5A, 24 Hrs.",0.13
same,Early Stage Apoptotic (7-AAD−/Annexin V+),"Jurkat tumor cells; Table 5B, 48 Hrs.",25.5
same,Late Stage Apoptotic (7-AAD+/Annexin V+),"Jurkat tumor cells; Table 5B, 48 Hrs.",69.8
same,Live Cells (7-AAD−/Annexin V−),"Jurkat tumor cells; Table 5B, 48 Hrs.",3.36
same,Necrotic (7-AAD+/Annexin V−),"Jurkat tumor cells; Table 5B, 48 Hrs.",1.33
same,Early Stage Apoptotic (7-AAD−/Annexin V+),Jeko-1 tumor cells; [1],56.5
same,Late Stage Apoptotic (7-AAD+/Annexin V+),Jeko-1 tumor cells; [1],39.5
same,Live Cells (7-AAD−/Annexin V−),Jeko-1 tumor cells; [1],3.88
same,Necrotic (7-AAD+/Annexin V−),Jeko-1 tumor cells; [1],0.077
same,Early Stage Apoptotic (7-AAD−/Annexin V+),"Jeko-1 tumor cells; Table 4B, Jeko-1, 48 Hrs.",7.64
same,Late Stage Apoptotic (7-AAD+/Annexin V+),"Jeko-1 tumor cells; Table 4B, Jeko-1, 48 Hrs.",91.0
same,Live Cells (7-AAD−/Annexin V−),"Jeko-1 tumor cells; Table 4B, Jeko-1, 48 Hrs.",1.19
same,Necrotic (7-AAD+/Annexin V−),"Jeko-1 tumor cells; Table 4B, Jeko-1, 48 Hrs.",0.13
